Key:
[1] = system: oat, wild; test: Test C postemergence; format: in vivo, Avena fatua; details: for Oat, Wild plant response rating: Postemergence, 31 g ai/ha, scale 0 to 100; for Plant response rating, Oat, Wild: postemergence
Description: (§1) Seeds of plant species selected from blackgrass (Alopecurus myosuroides), ryegrass, Italian (Italian ryegrass, Lolium multiflorum), wheat (winter wheat, Triticum aestivum), galium (catchweed bedstraw, Galium aparine), corn (Zea mays), crabgrass, large (large crabgrass, Digitaria sanguinalis), foxtail, giant (giant foxtail, Setaria faberii), johnsongrass (Sorghum halepense), lambsquarters (Chenopodium album), morningglory (Ipomoea coccinea), nutsedge, yellow (yellow nutsedge, Cyperus esculentus), pigweed (redroot pigweed, Amaranthus retroflexus), ragweed (common ragweed, Ambrosia elation), soybean (Glycine max), barnyardgrass (Echinochloa crus-galli), oilseed rape (Brassica napus), waterhemp (common waterhemp, Amaranthus rudis), oat, wild (wild oat, Avena fatua), kochia (Kochia scoparia), Surinam grass (Brachiaria decumbens), foxtail, green (green foxtail, Setaria viridis), goosegrass (Eleusine indica), bromegrass, downy (downy bromegrass, Bromus tectorum), nightshade (eastern black nightshade, Solanum ptycanthum), cocklebur (common cocklebur, Xanthium strumarium), cupgrass, woolly (woolly cupgrass, Eriochloa villosa), bermudagrass (Cynodon dactylon), sunflower, (common oilseed sunflower, Helianthus annuus), Russian thistle (Salsola kali), and velvetleaf (Abutilon theophrasti) were planted into a blend of loam soil and sand and treated preemergence with test chemicals formulated in a non-phytotoxic solvent mixture which included a surfactant.
(§2) At the same time, plants selected from these crop and weed species and also chickweed (common chickweed, Stellaria media), canarygrass (littleseed canarygrass, Phalaris minor), and deadnettle (henbit deadnettle, Lamium amplexicaule), were planted in pots containing Redi-Earth® planting medium (Scotts Company, 14111 Scottslawn Road, Marysville, Ohio 43041) comprising spaghnum peat moss, vermiculite, wetting agent and starter nutrients and treated with postemergence applications of test chemicals formulated in the same manner. Plants ranged in height from 2 to 18 cm (1- to 4-leaf stage) for postemergence treatments. Treated plants and controls were maintained in a greenhouse for 13 to 15 days, after which time all species were compared to controls and visually evaluated. Plant response ratings, summarized in Table C, are based on a scale of 0 to 100 where 0 is no effect and 100 is complete control. A dash (-) response means no test result.

[2] = system: ryegrass, Italian; test: Test C postemergence; format: in vivo, Lolium multiflorum; details: postemergence
Description: as §1, §2

[3] = system: morningglory; test: Test A postemergence; format: in vivo, Ipomoea spp.; details: Postemergence, 1000 g ai/ha; visual rating after approx. 10 days, 0 to 100 scale (0 no effect, 100 complete control)
Outline: (§3)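 Both timings tested concurrently in loam/sand soil: preemergence by directed soil spray, postemergence on plants of 2–10 cm at the one- to two-leaf stage. Greenhouse holding period was approximately 10 days before visual injury assessment (0–100, 0 = no effect).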

[4] = system: barnyardgrass; test: Test A preemergence; format: in vivo, Echinochloa crus-galli; details: Preemergence, 1000 g ai/ha; 0 to 100 scale, 0 no effect, 100 complete control
Outline: as §3

[5] = system: pigweed; test: Test A postemergence; format: in vivo, Amaranthus retroflexus; details: Postemergence, 1000 g ai/ha; visual rating after approx. 10 days, 0 to 100 scale (0 no effect, 100 complete control)
Outline: as §3

[6] = system: corn; test: Test A postemergence; format: in vivo, Zea mays; details: Postemergence, 1000 g ai/ha; visual rating after approx. 10 days, 0 to 100 scale (0 no effect, 100 complete control)
Outline: as §3

[7] = system: crabgrass, large; test: Test A postemergence; format: in vivo, Digitaria sanguinalis; details: Postemergence, 1000 g ai/ha; visual rating after approx. 10 days, 0 to 100 scale (0 no effect, 100 complete control)
Outline: as §3

[8] = system: kochia; test: Test C postemergence; format: in vivo, Kochia scoparia; details: for Kochia plant response rating: Postemergence, 31 g ai/ha, scale 0 to 100; for Plant response rating, Kochia: postemergence
Description: as §1, §2

[9] = system: barnyardgrass; test: Test A postemergence; format: in vivo, Echinochloa crus-galli; details: Postemergence, 1000 g ai/ha; visual rating after approx. 10 days, 0 to 100 scale (0 no effect, 100 complete control)
Outline: as §3

[10] = system: soybean; test: Test C postemergence; format: in vivo, Glycine max; details: postemergence; for Soybean plant response rating: 62 g ai/ha, scale 0 to 100
Description: as §1, §2

[11] = 250 g ai/ha, scale 0 to 100 (0 no effect, 100 complete control)
[12] = 62 g ai/ha, scale 0 to 100, 0 no effect, 100 complete control
[13] = 125 g ai/ha, scale 0 to 100, 0 no effect, 100 complete control

| Compound | Oat, Wild plant response rating [1] | Plant response rating, Oat, Wild [1, 11] | Plant response rating, Oat, Wild [1, 12] | Plant response rating, Oat, Wild [1, 13] | Plant response rating, Ryegrass, Italian [2, 11] | Plant response rating, Ryegrass, Italian [2, 12] | Plant response rating, Ryegrass, Italian [2, 13] | Morningglory plant response rating [3] | Barnyardgrass plant response rating [4] | Pigweed plant response rating [5] | Corn plant response rating [6] | Crabgrass, Large plant response rating [7] | Kochia plant response rating [8] | Plant response rating, Kochia [8, 11] | Plant response rating, Kochia [8, 12] | Plant response rating, Kochia [8, 13] | Barnyardgrass plant response rating [9] | Soybean plant response rating [10] | Plant response rating, Soybean [10, 11] | Plant response rating, Soybean [10, 13] |
| --- | --- | --- | --- | --- | --- | --- | --- | --- | --- | --- | --- | --- | --- | --- | --- | --- | --- | --- | --- | --- |
| CCc1cc(C(=O)NCC(F)(F)F)nn1Cc1cccc(OC(F)(F)F)c1 [Compound 20] | 15 | 20 | 15 | 20 | 25 | 10 | 15 | 100 | 80 | 100 | 30 | 80 | 90 | 98 | 95 | 98 | 60 | 45 | 75 | 60 |
| CCCNC(=O)c1cc(CC)n(Cc2cccc(OC(F)(F)F)c2)n1 [Compound 27] | 10 | 15 | 10 | 15 | 15 | 5 | 10 | 100 | 50 | 70 | 60 | 80 | 35 | 95 | 70 | 80 | 60 | 65 | 75 | 70 |

From patent US20150105252A1, “SUBSTITUTED PYRAZOLES AS HERBICIDES” (E I DU PONT DE NEMOURS AND COMPANY, priority 2013, published 2015)
